# Measurements from patent publication US9956304B2, “Contrast agents, methods for preparing contrast agents, and methods of imaging” (GEORGIA STATE UNIVERSITY RESEARCH FOUNDATION, INC., priority 2012, dated 2018).
# Like-named read-outs stand apart in the source and are kept apart here.
# What was measured:
# [1] = T1- and T2-weighted MRI of liver and blood vessels; type: in vivo, mice; settings: mouse, in vivo
# Description: Because the enhanced T1- and T2-weighted images have different effects of imaging contrast (brighter or darker, respectively), there is an enhanced probability of detecting the targeted tumor tissue. In contrast, the currently available approved liver contrast agents such as Eovist® have a very short fast phase (sec.) and liver uptake phase (approximately 3 min) in human. The mouse halftime is much shorter. Due this limitation, with these agents, it is not possible to obtain both high quality imaging for small animal. For human, their applications are also limited by their low relaxivity and short half-life. It is possible to obtain very high quality imaging by applying our contrast agent to both low and high field strengths such as 0.47-9.4 T.
# Longer blood circulation of ProCA will benefit the MRI guided intervention therapy […], since such therapy usually performed for a very long time. Long blood circulation time of ProCA32 in blood also promising for the application of DCE-MRI. Arterial input function (AIF) in DCE-MRI experiment is the key experiment for successful calculating tumor permeability. However, it is hard to accurate determine AIF of current clinically available MRI contrast agents, since the blood circulation time of current clinically available MRI contrast agents is too short. […]
# [2] = tested on: uveal melanoma metastasis in liver; set-up: species or system PEDF knockout mice; settings: mouse, in vivo
# [3] = human, cited from earlier work
# [4] = in vivo; cited from earlier work
# [5] = Gd3+ Kd by FLUO-5N titration and competition; type: binding; settings: 2 mM nitrilotriacetate buffer; read-out: Kd to Gd^3+
# Description: The buffer system contained 2 mM nitrilotriacetate. The fluorescence signal of FLUO-5N increased till it was up to saturation state. The fluorescence signal intensity plots were fitted by hill equation.
# The Kd of ProCA1 variants to Gd^3+ was determined by the competition between ProCA1 variants and FLUO-5N. When the concentrations of FLUO-5N and Gd^3+ were fixed, ProCA1 variants were gradually added to the sample solution to compete Gd^3+ with FLUO-5N.
# Where Kd1 is the dissociation constant for FLUO-5N, [FLUO-5N]T is the total concentration of FLUO-5N, Kapp is the apparent dissociation constant for protein and Kd2 is the dissociation constant for protein.
# [6] = read-out: Kd to Gd^3+ (other's result); cited from earlier work
# [7] = mouse, in vivo; cited from earlier work
# [8] = In vivo MRI detection limit (kidney/liver enhancement); set-up: species or system mice; settings: 1.6 μmol/kg
# [9] = kidney; Gd-DTPA 0.2 mmol/kg, Gd-ProCA32 0.02 mmol/kg
# [10] = mice; cited from earlier work
# [11] = Arterial input function study, 9.4 T; settings: mouse, in vivo
# [12] = Organ distribution and accumulation of Gd3+ by ICP-OES; settings: 10 minutes post i.v. injection
# [13] = mouse, in vivo, iv
# [14] = cited from earlier work
# integrin = settings: read-out: binding affinity between RGD and integrin; cited from earlier work
# [15] = Fura-2 competition assay (Gd3+ loaded Fura-2); type: binding; settings: Gd^3+ loaded Fura-2 20 μM, protein 10-20 μM
# Description: To test our hypothesis and screening ProCA candidates with highest thermodynamic stability, Gd^3+ binding affinity and metal selectivity of ProCAs were measured by metal-chelator buffer system. ProCA3 variants were purified using Henzl's method with large modification. […] The Tb^3+-binding affinity of calcium-binding protein was measured by Tb^3+-chelator buffer system. Free metal concentration was carefully controlled by the ratio of metal with chelators from 0 to 1. After measured the Kd of Tb^3+, the Kd of Gd^3+ to ProCA is measured by Gd^3+ competition methods. […] To better understanding the properties of our contrast agents, we introduce a tryptophan residue into the ProCA3. […] Thus, D, D, D, E, E in position 1, 3, 5, 9, 12 of EF-hand is the optimized key residues to achieve high Gd^3+ binding affinity.
compound,measurement,setting,value
"CCOc1ccc(CC(CN(CCN(CC(=O)[O-])CC(=O)[O-])CC(=O)[O-])N(CC(=O)[O-])CC(=O)[O-])cc1.[Gd+3].[Na+].[Na+] (stereo not shown) [Eovist, Gd-EOB-DTPA]",effect on liver signal in T2 weighted MR images,[1],does not cause such decrease
same,tumor detection in same mice model,[2],No tumor can be detected
same,liver uptake phase,[3]; in vivo,approximately 3 min
same,hepatocyte up take,[4],50%
same,retention time in the liver,[4],30 min
O=C(O)CN(CC(=O)O)c1ccc(-c2c3cc(F)c(=O)cc-3oc3cc(O)c(F)cc23)cc1OCCOc1cc([N+](=O)[O-])ccc1N(CC(=O)O)CC(=O)O [FLUO-5N],Kd,[5],0.0052 nM
same,Kd,[6],0.0038 nM
[Gd+3] [Free Gd^3+],LD50,[7],0.1 mmol/kg
O=C([O-])CN(CCN(CC(=O)[O-])CC(=O)O)CCN(CC(=O)[O-])CC(=O)O.[Gd+3] [Gd-DTPA],kidney enhancement under MRI,[8],do not show any significant kidney enhancement
same,time to maximum cortex enhancement,[9],≤ 1 min
same,time to maximum medulla enhancement,[9],≤ 1 min
same,blood half-life,[10],2 min
same,blood half-life,[3],10 min
same,AIF half-life,[11],less than 1 min
same,organ distribution of Gd^3+,[12],mainly accumulated in kidney
[Cl][Gd]([Cl])[Cl] [GdCl3],long term Gd^3+ accumulation in organs,[13],"much higher accumulation in bone, liver and spleen"
same,organ distribution of Gd^3+,[13],mainly distributed in the lung and spleen
"CNC[C@H](O)[C@@H](O)[C@H](O)[C@H](O)CO.CNC[C@H](O)[C@@H](O)[C@H](O)[C@H](O)CO.O=C([O-])CN(CCN(CC(=O)[O-])CC(=O)O)CCN(CC(=O)O)C(COCc1ccccc1)C(=O)[O-].[Gd+3] (stereo not shown) [Multihance, Gd-BOPTA]",hepatocyte up take,[4],5%
same,retention time in the liver,[4],1 min
O=C([O-])CN(CCN(CC(=O)[O-])CC(=O)[O-])CCN(CC(=O)[O-])CC(=O)[O-].[Na+].[Na+].[Na+].[Zn+2] [Zn-DTPA],selectivity of Zn^2+ over Gd^3+,[14],4.17
Arg-Gly-Asp [RGD],Kd,integrin,~1000 nM
calmodulin,Gd^3+ affinity relative to Fura-2,[15],does not shift the wavelength of Fura-2
